The nature of data set [1]: Lactam solubility in bio-surfactant solutions (48 h agitation, filtration, HPLC). In kind it is physicochemical. How it is done: Bio-surfactant solutions at the levels shown in the results below were prepared for screening. The maximum level tested was dictated by the solubility of the surfactant in water. The following representative example uses 4-(4-chlorophenyl)-5-methylene-pyrrol-2-one.
Solid lactam was weighed into Whatman® Mini Uniprep sample vials, fitted with a 0.45 μm nylon filter (2.7 to 3.3 mg per vial). 50 μL of a solvent solution was placed into each sample vial, the vial capped and shaken briefly by hand to agitate the solid, then placed on a Thermo Labsystems Wellmix® plate shaker and continuously agitated for 48 hours. After this time, the excess solid in the vial was removed using the integral filter membrane and the resultant solution analysed by HPLC to determine the level of dissolved lactam.
Samples were analysed using an Agilent 1200® series HPLC fitted with a Hypersil Gold C18 column (15×2.1×3 μm), using isocratic elution with 60/40 methanol/water (+0.1% Formic Acid) at a flow rate of 0.4 mL/min, using a DAD detector at 285 nm. 4-(4-Chlorophenyl)-5-methylene-pyrrol-2-one has a retention time of ˜2.8 minutes.
Each test surfactant solution was tested in triplicate and the mean value of lactam in solution calculated. Values of solubility were quoted as the improvement in aqueous solubility vs water alone (i.e. mean level of lactam dissolved in water+solvent/mean level of lactam dissolved in water) to allow comparison between screens conducted on different days.

The conditions of data set [2]: produced by Rhodococcus erythropolis grown on n-alkane; cited from earlier work.
Setting [3] is: Additive Di-rhamnolipid R2, 0% in water (water alone).
[4] abbreviates: Additive Di-rhamnolipid R2, 0.1% in water.
Where [5] appears, read: Additive Di-rhamnolipid R2, 0.5% in water.
[6] abbreviates: Additive Di-rhamnolipid R2, 1% in water.
[7] abbreviates: Additive Di-rhamnolipid R2, 2% in water.
The mark [8] stands for this setting: Additive Mono-rhamnolipid R1, 0% in water (water alone).
[9] abbreviates: Additive Mono-rhamnolipid R1, 0.1% in water.
[10] abbreviates: Additive Mono-rhamnolipid R1, 0.5% in water.
[11] abbreviates: Additive Mono-rhamnolipid R1, 1% in water.
The mark [12] stands for this setting: Additive Mono-rhamnolipid R1, 2% in water.
Setting [13] is: Additive Mono-rhamnolipid R1, 4% in water.

For `C=C1NC(=O)C=C1c1ccc(Cl)cc1` [4-(4-chlorophenyl)-5-methylene-pyrrol-2-one], the “Mean Lactam Level in Solution” value worked out at 2.7 ppm in data set [1] (setting [3]); 15.2 ppm in data set [1] (setting [4]); 42.6 ppm in data set [1] (setting [5]); 77.5 ppm in data set [1] (setting [6]); 139.6 ppm in data set [1] (setting [7]); 2.7 ppm in data set [1] (setting [8]). In addition, the “Mean Lactam Level in Solution” value in data set [1] (setting [9]) stood at 10.9 ppm; in data set [1] (setting [10]) it was 39.3 ppm; in data set [1] (setting [11]), 75.3 ppm; in data set [1] (setting [12]), 149.7 ppm; in data set [1] (setting [13]), 194.8 ppm. Besides, the “Solubility Increase vs water alone” value in data set [1] (setting [3]) amounted to 1.0; in data set [1] (setting [4]) it was 5.7; in data set [1] (setting [5]) it was 15.9; in data set [1] (setting [6]), 28.9; in data set [1] (setting [7]), 52.1; in data set [1] (setting [8]) it was 1.0. The “Solubility Increase vs water alone” value in data set [1] (setting [9]) was 4.1; in data set [1] (setting [10]), 14.7; in data set [1] (setting [11]) it was 28.1; in data set [1] (setting [12]) it was 55.9; in data set [1] (setting [13]), 72.7.

As for Phosphatidylethanolamine, in data set [2], the CMC is 30 mg/L; the “interfacial tension between water and hexadecane” value was “less than 1 mN m^−1”.

The record behind these values is patent publication US10986837B2, “Lactam solubility” (Conopco, Inc., priority 2015, dated 2021).
